Measurements from patent US6737383B1, “Herbicidal oxadiazolidines” (priority 1999, dated 2004).

Legend:
bedstraw = experiment: Test B pre/postemergence bedstraw; format: in vivo, Galium aparine
Summary of the method: (§1)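 Test chemicals in a non-phytotoxic solvent mixture with surfactant were sprayed preemergence onto planted seeds and postemergence onto plants 2 to 18 cm tall (1- to 4-leaf stage). After twelve to sixteen days in a greenhouse, injury was visually rated against untreated controls from 0 (no effect) to 10 (complete control).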

blackgrass = experiment: Test B pre/postemergence blackgrass; format: in vivo, Alopecurus myosuroides
Summary of the method: as §1

surinam grass = experiment: Test B pre/postemergence surinam grass; format: in vivo, Brachiaria decumbens
Summary of the method: as §1

corn = experiment: Test B pre/postemergence corn; format: in vivo, Zea mays
Summary of the method: as §1

crabgrass = experiment: Test B pre/postemergence crabgrass; format: in vivo, Digitaria sanguinalis
Summary of the method: as §1

giant foxtail = experiment: Test B pre/postemergence giant foxtail; format: in vivo, Setaria faberii
Summary of the method: as §1

morningglory = experiment: Test B pre/postemergence morningglory; format: in vivo, Ipomoea hederacea
Summary of the method: as §1

rape = experiment: Test B pre/postemergence rape; format: in vivo, Brassica napus
Summary of the method: as §1

soybean = experiment: Test B pre/postemergence soybean; format: in vivo, Glycine max
Summary of the method: as §1

velvetleaf = experiment: Test B pre/postemergence velvetleaf; format: in vivo, Abutilon theophrasti
Summary of the method: as §1

wheat = experiment: Test B pre/postemergence wheat; format: in vivo, Triticum aestivum
Summary of the method: as §1

wild oat = experiment: Test B pre/postemergence wild oat; format: in vivo, Avena fatua
Summary of the method: as §1

purple nutsedge = experiment: Test B pre/postemergence purple nutsedge; format: in vivo, Cyperus rotundus
Summary of the method: as §1

rice = experiment: Test B flood test rice; format: in vivo, Oryza sativa
Summary of the method: (§2)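 Flood test on plants grown to the 2-leaf stage; treated plants kept in greenhouse twelve to sixteen days, then visually rated against controls on a 0 (no effect) to 10 (complete control) scale.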

smallflower flatsedge = experiment: Test B flood test smallflower flatsedge; format: in vivo, Cyperus difformis
Summary of the method: as §2

duck salad = experiment: Test B flood test duck salad; format: in vivo, Heteranthera limosa
Summary of the method: as §2

[1] = Postemergence, Rate 62 g/ha, scale 0 to 10, 0 is no effect, 10 is complete control
[2] = Postemergence, Rate 250 g/ha, scale 0 to 10, 0 no effect, 10 complete control
[3] = Preemergence, Rate 62 g/ha, scale 0 to 10 (0 no effect, 10 complete control)
[4] = Preemergence, Rate 125 g/ha, scale 0 to 10 (0 no effect, 10 complete control)
[5] = Preemergence, Rate 250 g/ha, scale of 0 to 10 where 0 is no effect and 10 is complete control
[6] = Preemergence, Rate 500 g/ha, scale 0 (no effect) to 10 (complete control)
[7] = Rate 125 g/ha, Postemergence, scale 0 to 10, 0 no effect, 10 complete control
[8] = Rate 500 g/ha, Postemergence, scale 0 to 10, 0 no effect, 10 complete control
[9] = Rate 125 g/ha, Postemergence section (flood test species), scale 0 to 10, 0 no effect, 10 complete control
[10] = Rate 500 g/ha, listed under Postemergence (flood test species), scale 0 to 10, 0 no effect, 10 complete control
[11] = flood test, listed under Postemergence, Rate 250 g/ha, scale 0 to 10, 0 no effect, 10 complete control

For `COc1cccc(C)c1-n1c(=O)on(C(=O)N(c2ccc(F)cc2)C(C)C)c1=O` [Compound 62], the “Bedstraw plant response rating” value (bedstraw; [1]) was 0, the “Bedstraw plant response rating” value (bedstraw; [2]) was 2 and the “Bedstraw plant response rating” value (bedstraw; [3]) was 0. For the same compound, the “Plant response rating, Bedstraw” value (bedstraw; [4]) was 0, the “Plant response rating, Bedstraw” value (bedstraw; [5]) was 0 and the “Bedstraw plant response rating” value (bedstraw; [6]) was 4. For the same compound, the “Bedstraw plant response rating” value (bedstraw; [7]) was 0, the “Blackgrass plant response rating” value (blackgrass; [1]) was 0 and the “Blackgrass plant response rating” value (blackgrass; [2]) was 0. The “Blackgrass plant response rating” value (blackgrass; [3]) was 0, the “Plant response rating, Blackgrass” value (blackgrass; [4]) was 0 and the “Plant response rating, Blackgrass” value (blackgrass; [5]) was 2. For the same compound, the “Blackgrass plant response rating” value (blackgrass; [6]) was 4, the “Blackgrass plant response rating” value (blackgrass; [7]) was 0 and the “Blackgrass plant response rating” value (blackgrass; [8]) was 2. For the same compound, the “B. signalgrass plant response rating” value (surinam grass; [1]) was 0, the “B. signalgrass plant response rating” value (surinam grass; [2]) was 2 and the “B. signalgrass plant response rating” value (surinam grass; [3]) was 0. The “Plant response rating, B. signalgrass” value (surinam grass; [4]) was 0, the “Plant response rating, B. signalgrass” value (surinam grass; [5]) was 0 and the “B. signalgrass plant response rating” value (surinam grass; [6]) was 0. For the same compound, the “B. signalgrass plant response rating” value (surinam grass; [7]) was 0, the “B. signalgrass plant response rating” value (surinam grass; Rate 500 g/ha, Postemergence, scale of 0 to 10 where 0 is no effect and 10 is complete control) was 4 and the “Corn plant response rating” value (corn; [1]) was 0. For the same compound, the “Corn plant response rating” value (corn; [2]) was 0, the “Corn plant response rating” value (corn; [3]) was 0 and the “Plant response rating, Corn” value (corn; [4]) was 0. The “Plant response rating, Corn” value (corn; [5]) was 0, the “Corn plant response rating” value (corn; [6]) was 0 and the “Corn plant response rating” value (corn; [7]) was 0. The “Corn plant response rating” value (corn; [8]) was 0, the “Crabgrass plant response rating” value (crabgrass; [1]) was 0 and the “Crabgrass plant response rating” value (crabgrass; [2]) was 0. For the same compound, the “Crabgrass plant response rating” value (crabgrass; [3]) was 2, the “Plant response rating, Crabgrass” value (crabgrass; [4]) was 3 and the “Plant response rating, Crabgrass” value (crabgrass; [5]) was 6. For the same compound, the “Crabgrass plant response rating” value (crabgrass; [6]) was 9, the “Crabgrass plant response rating” value (crabgrass; [7]) was 0 and the “Crabgrass plant response rating” value (crabgrass; [8]) was 7. The “Giant foxtail plant response rating” value (giant foxtail; [1]) was 0, the “Giant foxtail plant response rating” value (giant foxtail; [2]) was 0 and the “Giant foxtail plant response rating” value (giant foxtail; [3]) was 5. For the same compound, the “Plant response rating, Giant foxtail” value (giant foxtail; [4]) was 5, the “Plant response rating, Giant foxtail” value (giant foxtail; [5]) was 9 and the “Giant foxtail plant response rating” value (giant foxtail; [6]) was 10. For the same compound, the “Giant foxtail plant response rating” value (giant foxtail; [7]) was 0, the “Giant foxtail plant response rating” value (giant foxtail; [8]) was 2 and the “Morningglory plant response rating” value (morningglory; [1]) was 2. For the same compound, the “Morningglory plant response rating” value (morningglory; [2]) was 2, the “Morningglory plant response rating” value (morningglory; [3]) was 0 and the “Plant response rating, Morningglory” value (morningglory; [4]) was 0. The “Plant response rating, Morningglory” value (morningglory; [5]) was 0, the “Morningglory plant response rating” value (morningglory; [6]) was 3 and the “Morningglory plant response rating” value (morningglory; [7]) was 2. For the same compound, the “Morningglory plant response rating” value (morningglory; [8]) was 6, the “Rape plant response rating” value (rape; [1]) was 0 and the “Rape plant response rating” value (rape; [2]) was 0. The “Rape plant response rating” value (rape; [3]) was 0, the “Plant response rating, Rape” value (rape; [4]) was 0 and the “Plant response rating, Rape” value (rape; [5]) was 0. The “Rape plant response rating” value (rape; [6]) was 0, the “Rape plant response rating” value (rape; [7]) was 0 and the “Rape plant response rating” value (rape; [8]) was 0. The “Soybean plant response rating” value (soybean; [1]) was 1, the “Soybean plant response rating” value (soybean; [2]) was 2 and the “Soybean plant response rating” value (soybean; [3]) was 0. The “Plant response rating, Soybean” value (soybean; [4]) was 0, the “Plant response rating, Soybean” value (soybean; [5]) was 0 and the “Soybean plant response rating” value (soybean; [6]) was 0. The “Soybean plant response rating” value (soybean; [7]) was 1, the “Soybean plant response rating” value (soybean; [8]) was 3 and the “Velvetleaf plant response rating” value (velvetleaf; [1]) was 0. The “Velvetleaf plant response rating” value (velvetleaf; [2]) was 2, the “Velvetleaf plant response rating” value (velvetleaf; [3]) was 0 and the “Plant response rating, Velvetleaf” value (velvetleaf; [4]) was 0. For the same compound, the “Plant response rating, Velvetleaf” value (velvetleaf; [5]) was 0, the “Velvetleaf plant response rating” value (velvetleaf; [6]) was 0 and the “Velvetleaf plant response rating” value (velvetleaf; [7]) was 0. For the same compound, the “Velvetleaf plant response rating” value (velvetleaf; [8]) was 7, the “Wheat plant response rating” value (wheat; [1]) was 0 and the “Wheat plant response rating” value (wheat; [2]) was 0. The “Wheat plant response rating” value (wheat; [3]) was 0, the “Plant response rating, Wheat” value (wheat; [4]) was 0 and the “Plant response rating, Wheat” value (wheat; [5]) was 0. The “Wheat plant response rating” value (wheat; [6]) was 0, the “Wheat plant response rating” value (wheat; [7]) was 0 and the “Wheat plant response rating” value (wheat; [8]) was 0. The “Wild oats plant response rating” value (wild oat; [1]) was 0, the “Wild oats plant response rating” value (wild oat; [2]) was 3 and the “Wild oats plant response rating” value (wild oat; [3]) was 0. The “Plant response rating, Wild oats” value (wild oat; [4]) was 0, the “Plant response rating, Wild oats” value (wild oat; [5]) was 0 and the “Wild oats plant response rating” value (wild oat; [6]) was 0. The “Wild oats plant response rating” value (wild oat; [7]) was 0, the “Wild oats plant response rating” value (wild oat; [8]) was 3 and the “Nutsedge plant response rating” value (purple nutsedge; [1]) was 0. For the same compound, the “Nutsedge plant response rating” value (purple nutsedge; [2]) was 0, the “Nutsedge plant response rating” value (purple nutsedge; [3]) was 0 and the “Plant response rating, Nutsedge” value (purple nutsedge; [4]) was 0. The “Plant response rating, Nutsedge” value (purple nutsedge; [5]) was 0, the “Nutsedge plant response rating” value (purple nutsedge; [6]) was 0 and the “Nutsedge plant response rating” value (purple nutsedge; [7]) was 0. For the same compound, the “Nutsedge plant response rating” value (purple nutsedge; [8]) was 3, the “Rice plant response rating” value (rice; [1]) was 0 and the “Rice plant response rating” value (rice; [9]) was 0. For the same compound, the “Rice plant response rating” value (rice; [10]) was 0, the “Rice plant response rating” value (rice; [11]) was 0 and the “S. Flatsedge plant response rating” value (smallflower flatsedge; [1]) was 0. For the same compound, the “S. Flatsedge plant response rating” value (smallflower flatsedge; [9]) was 0, the “S. Flatsedge plant response rating” value (smallflower flatsedge; [10]) was 0 and the “S. Flatsedge plant response rating” value (smallflower flatsedge; [11]) was 0. The “Ducksalad plant response rating” value (duck salad; [1]) was 0, the “Ducksalad plant response rating” value (duck salad; [9]) was 0 and the “Ducksalad plant response rating” value (duck salad; [10]) was 0. For the same compound, the “Ducksalad plant response rating” value (duck salad; [11]) was 0.
